For 14 compounds, IC50 and GI50 results are on record in ChEMBL document CHEMBL1140283, “Novel, potent small-molecule inhibitors of the molecular chaperone Hsp90 discovered through structure-based design” (J Med Chem, 2005).

Structures are written as SMILES. pIC50: −log10 of the molar value. Where only a bound is given, the exact number is not on record here.

Test [1] addresses Heat shock protein HSP 90-alpha (Homo sapiens, UniProt P07900). In words: Inhibitory concentration against activity of Hsp90 was determined by fluorescence polarization (FP) assay.
Test [2] has as its system HCT-116. The test can be described thus: Inhibitory concentration against cell proliferation of human HCT116 cells. It counts as functional.
Test [3] addresses ATP-dependent molecular chaperone HSC82 (Saccharomyces cerevisiae S288c, UniProt P15108). In words: Inhibitory concentration against ATPase activity of Hsp90 of Saccharomyces cerevisiae was determined by ATPase activity assay.
Test [4] relates to HCT-116. In words: Inhibitory concentration against cell proliferation of human HCT116 cell. The format is functional.
[5] abbreviates: Homo sapiens, HCT-116, read-out: GI50.

Sequence of ATP-dependent molecular chaperone HSC82 (P15108 whole entry): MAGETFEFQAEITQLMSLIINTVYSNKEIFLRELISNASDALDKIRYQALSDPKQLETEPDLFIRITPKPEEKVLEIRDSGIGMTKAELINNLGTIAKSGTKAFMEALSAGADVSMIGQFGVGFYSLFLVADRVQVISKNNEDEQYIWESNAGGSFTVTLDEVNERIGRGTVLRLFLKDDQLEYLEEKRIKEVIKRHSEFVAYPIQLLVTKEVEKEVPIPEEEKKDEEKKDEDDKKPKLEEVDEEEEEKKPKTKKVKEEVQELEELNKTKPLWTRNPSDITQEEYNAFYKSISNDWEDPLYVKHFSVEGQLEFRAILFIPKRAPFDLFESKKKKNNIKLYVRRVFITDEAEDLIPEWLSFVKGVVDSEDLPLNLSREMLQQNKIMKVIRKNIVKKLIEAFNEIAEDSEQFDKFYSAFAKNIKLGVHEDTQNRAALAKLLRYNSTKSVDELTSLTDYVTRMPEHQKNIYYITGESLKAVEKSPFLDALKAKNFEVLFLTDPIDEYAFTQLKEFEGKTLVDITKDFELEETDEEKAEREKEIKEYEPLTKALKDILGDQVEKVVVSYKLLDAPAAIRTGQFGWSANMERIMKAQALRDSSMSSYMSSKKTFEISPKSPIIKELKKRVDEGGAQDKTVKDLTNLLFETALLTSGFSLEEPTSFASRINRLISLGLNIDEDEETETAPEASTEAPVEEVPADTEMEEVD

Take `Cc1n[nH]c(-c2ccc(O)cc2O)c1-c1ccc2c(c1)OCCO2`: the pIC50 was 5.33 in test [1] and 4.64 in test [3]. For the same compound, in the test with HCT-116 [2] (setting [5]), the GI50 worked out at 34800 nM.

Regarding `CCNC(=O)c1[nH]nc(-c2cc(Br)c(O)cc2O)c1-c1ccc(OC)cc1`, the GI50 with HCT-116 [2] (setting [5]) was 938 nM. For the same compound, the pIC50 in test [3] was 6.41.

For the compound `Cc1[nH]nc(-c2cc(Cl)c(O)cc2O)c1-c1ccc2c(c1)OCCO2`, in the test on HCT-116 [2] (setting [5]), the GI50 was determined as 14900 nM. In test [3], the pIC50 is 6.19.

`COc1ccc(-c2c(-c3ccc(O)cc3O)n[nH]c2C)cc1`: the GI50 in the test on HCT-116 [2] (setting [5]) stood at 33300 nM. In test [3], this compound had a pIC50 of 4.43.

As for `COc1ccc(-c2c(C)n[nH]c2-c2cc(Br)c(O)cc2O)cc1`, the pIC50 in test [1] is 7.21; in test [3], 5.72. In the test on HCT-116 [2] (setting [5]), the GI50 is 6100 nM.

In test [3], `CCNC(=O)c1[nH]nc(-c2cc(Cl)c(O)cc2O)c1-c1ccc(OC)cc1` had a pIC50 of 6.85.

Consider `COc1ccc(-c2c(-c3cc(Cl)c(O)cc3O)n[nH]c2C(=O)NC(C)C)cc1`, for which the pIC50 was 6.92 in test [1] and 5.82 in test [3]. For the same compound, the GI50 with HCT-116 [2] (setting [5]) was determined as 1900 nM.

As to `COc1ccc(-c2c(-c3cc(Cl)c(O)cc3O)n[nH]c2C(N)=O)cc1`, the values for the negative-log IC50 (pIC50) in test [1] and in test [3] were 7.28 and 6.38, respectively. Also, the GI50 with HCT-116 [2] (setting [5]) amounted to 1100 nM.

Consider `COc1ccc(-c2c(C)n[nH]c2-c2cc(Cl)c(O)cc2O)cc1`, for which the pIC50 is 6.82 in test [1] and 5.77 in test [3]. Moreover, the GI50 with HCT-116 [2] (setting [5]) came to 6700 nM.

`CCc1cc(-c2n[nH]c(C)c2-c2ccc3c(c2)OCCO3)c(O)cc1O`: in the test with HCT-116 [2] (setting [5]), the GI50 stood at 5800 nM. In addition, the negative logarithm of the IC50 (pIC50) in test [3] was 5.24.

`CNC(=O)c1[nH]nc(-c2cc(Cl)c(O)cc2O)c1-c1ccc(OC)cc1`: the pIC50 in test [1] was 7.41; in test [3], 6.96. Besides, the GI50 with HCT-116 [2] (setting [5]) was determined as 680 nM.

With `COc1ccc(-c2c(-c3cc(Cl)c(O)cc3O)n[nH]c2C(=O)O)cc1`, the figures for the pIC50 in test [1] and in test [3] were 6.29 and 5.64, respectively. In the test with HCT-116 [2], this compound came in with a GI50 above 80000 nM.

In the case of `C[C@@H]1C[C@H]2O[C@@H]2/C=C\C=C\C(=O)Cc2c(Cl)c(O)cc(O)c2C(=O)O1` [RADICICOL], in the test with HCT-116 [4], the GI50 amounted to 130 nM. For the same compound, the pIC50 in test [3] is 6.70.

`C=CCNC1=C2C[C@@H](C)C[C@H](OC)[C@H](O)[C@@H](C)/C=C(\C)[C@H](OC(N)=O)[C@@H](OC)/C=C\C=C(/C)C(=O)NC(=CC1=O)C2=O` [TANESPIMYCIN]: in the test on HCT-116 [4], the GI50 was found to be 160 nM. Besides, the pIC50 in test [3] was 4.87.
